From ChEMBL document CHEMBL3826966, “A chromatography-free isolation of rohitukine from leaves of Dysoxylum binectariferum: Evaluation for in vitro cytotoxicity, Cdk inhibition and physicochemical properties” (Bioorg Med Chem Lett, 2016) come the findings set out here.

As usually defined, the IC50 is the concentration that inhibits the measured activity by half. A low value points to greater potency. The term inhibition denotes how much of the control response was suppressed. A low value points to little suppression.

Converted amounts (≈) assume the structure as drawn.

For data set [1], the target named is Glycogen synthase kinase-3 beta (Homo sapiens) (UniProt P49841). Put plainly: Inhibition of human GSK3beta (2 to 420 residues) assessed as remaining enzyme activity at 50 uM after 30 mins by 33P-ATP filter-binding assay.
For data set [2], the target named is CDK9/cyclin T1 (Homo sapiens) (UniProt O60563+P50750). Put plainly: Inhibition of human Cdk9/T1 using YSPTSPSYSPTSPSYSPTSPKKK peptide as substrate assessed as remaining enzyme activity at 50 uM after 30 mins by 33P-ATP filter-binding assay. In kind it is protein-complex assay.
Data set [3] deals with Serine/threonine-protein kinase STK11 (Homo sapiens) (UniProt Q15831). Put plainly: Inhibition of human LKB1 (1 to 433 residues) assessed as remaining enzyme activity at 50 uM after 30 mins by 33P-ATP filter-binding assay.
The target of data set [4] is AMP-activated protein kinase, AMPK (Homo sapiens) (UniProt P54646+O43741+P54619+Q9UGJ0+Q9Y478+Q13131+Q9UGI9). Put plainly: Inhibition of human AMPK assessed as remaining enzyme activity at 50 uM after 30 mins by 33P-ATP filter-binding assay. The data set is classed as protein-complex assay.
In data set [5] the target is Casein kinase I isoform delta (Homo sapiens) (UniProt P48730). The experiment in a line: Inhibition of human CK1delta (1 to 415 residues) assessed as remaining enzyme activity at 50 uM after 30 mins by 33P-ATP filter-binding assay.
The target in data set [6] is Tau-tubulin kinase 1 (Homo sapiens) (UniProt Q5TCY1). The experiment in a line: Inhibition of human TTBK1 (1 to 1321 residues) assessed as remaining enzyme activity at 50 uM after 30 mins by 33P-ATP filter-binding assay.
Data set [7] concerns the target Eukaryotic elongation factor 2 kinase (Homo sapiens) (UniProt O00418). The experiment in a line: Inhibition of human EF2K (2 to 725 residues) assessed as remaining enzyme activity at 50 uM after 30 mins by 33P-ATP filter-binding assay.
In data set [8] the target is Serine/threonine-protein kinase 24 (Homo sapiens) (UniProt Q9Y6E0). The experiment in a line: Inhibition of human MST3 (2 to 431 residues) assessed as remaining enzyme activity at 50 uM after 30 mins by 33P-ATP filter-binding assay.
Data set [9] has as its target Mitogen-activated protein kinase kinase kinase 1 (Homo sapiens) (UniProt Q13233). Put plainly: Inhibition of human MEKK1 (877 to1563 residues) assessed as remaining enzyme activity at 50 uM after 30 mins by 33P-ATP filter-binding assay.
The target of data set [10] is Tyrosine-protein kinase Yes (Homo sapiens) (UniProt P07947). The experiment in a line: Inhibition of human YES1 (1 to 543 residues) assessed as remaining enzyme activity at 50 uM after 30 mins by 33P-ATP filter-binding assay.
Data set [11] concerns the target Tyrosine-protein kinase ABL1 (Homo sapiens) (UniProt P00519). The experiment in a line: Inhibition of human ABL (118 to 535 residues) assessed as remaining enzyme activity at 50 uM after 30 mins by 33P-ATP filter-binding assay.
In data set [12] the target is Ephrin type-B receptor 3 (Homo sapiens) (UniProt P54753). Put plainly: Inhibition of human EPHB3 (561 to 998 residues) assessed as remaining enzyme activity at 50 uM after 30 mins by 33P-ATP filter-binding assay.
Data set [13] is described as follows: Cell cycle arrest in human HL60 cells assessed as accumulation at G2 phase at 5 uM (reference value: 5 %). In kind it is functional, cell-based. The following applies: HL-60.
Data set [14] is described as follows: Thermodynamic equilibrium solubility in PBS buffer at 120 ug/ml at pH 7.4 by HPLC analysis. The following applies: read-out: Therm_solubility. The data set is classed as physicochemical.
Another data set concerns the target CDK2/Cyclin A2 (Homo sapiens, UniProt P24941). The experiment in a line: Inhibition of human Cdk2/cyclin A using histone H1 substrate after 30 mins by 33P-ATP filter-binding assay. The data set is classed as protein-complex assay.
For data set [15], the target named is CDK2/Cyclin A2 (Homo sapiens) (UniProt P24941+P20248). The experiment in a line: Inhibition of human Cdk2/cyclin A at 0.5 uM using Histone H1 substrate after 30 mins by 33P-ATP filter-binding assay. In kind it is protein-complex assay.
Data set [16] concerns the target Dual specificity mitogen-activated protein kinase kinase 1 (Homo sapiens) (UniProt Q02750). Put plainly: Inhibition of human MKK1 (2 to 393 residues) assessed as remaining enzyme activity at 50 uM after 30 mins by 33P-ATP filter-binding assay.
The target in data set [17] is Mitogen-activated protein kinase 8 (Homo sapiens) (UniProt P45983). The experiment in a line: Inhibition of human JNK1 (1 to 384 residues) assessed as remaining enzyme activity at 50 uM after 30 mins by 33P-ATP filter-binding assay.
The target of data set [18] is Mitogen-activated protein kinase 14 (Homo sapiens) (UniProt Q16539). Put plainly: Inhibition of human p38alpha MAPK (1-360 residues) assessed as remaining enzyme activity at 50 uM after 30 mins by 33P-ATP filter-binding assay.
Data set [19] has as its target Mitogen-activated protein kinase 15 (Homo sapiens) (UniProt Q8TD08). Put plainly: Inhibition of human ERK8 (2 to 544 residues) assessed as remaining enzyme activity at 50 uM after 30 mins by 33P-ATP filter-binding assay.
The target in data set [20] is RAC-alpha serine/threonine-protein kinase (Homo sapiens) (UniProt P31749). The experiment in a line: Inhibition of human PKBalpha assessed as remaining enzyme activity at 50 uM after 30 mins by 33P-ATP filter-binding assay.
In data set [21] the target is Serine/threonine-protein kinase N2 (Homo sapiens) (UniProt Q16513). Put plainly: Inhibition of human PRK2 (501 to 984 residues) assessed as remaining enzyme activity at 50 uM after 30 mins by 33P-ATP filter-binding assay.
A further data set deals with MAP3K9. The experiment in a line: Inhibition of human MLK1 (132 to 413 residues) assessed as remaining enzyme activity at 50 uM after 30 mins by 33P-ATP filter-binding assay.

Sequence of Tyrosine-protein kinase Yes (Homo sapiens) (P07947 2-543 limits assumed): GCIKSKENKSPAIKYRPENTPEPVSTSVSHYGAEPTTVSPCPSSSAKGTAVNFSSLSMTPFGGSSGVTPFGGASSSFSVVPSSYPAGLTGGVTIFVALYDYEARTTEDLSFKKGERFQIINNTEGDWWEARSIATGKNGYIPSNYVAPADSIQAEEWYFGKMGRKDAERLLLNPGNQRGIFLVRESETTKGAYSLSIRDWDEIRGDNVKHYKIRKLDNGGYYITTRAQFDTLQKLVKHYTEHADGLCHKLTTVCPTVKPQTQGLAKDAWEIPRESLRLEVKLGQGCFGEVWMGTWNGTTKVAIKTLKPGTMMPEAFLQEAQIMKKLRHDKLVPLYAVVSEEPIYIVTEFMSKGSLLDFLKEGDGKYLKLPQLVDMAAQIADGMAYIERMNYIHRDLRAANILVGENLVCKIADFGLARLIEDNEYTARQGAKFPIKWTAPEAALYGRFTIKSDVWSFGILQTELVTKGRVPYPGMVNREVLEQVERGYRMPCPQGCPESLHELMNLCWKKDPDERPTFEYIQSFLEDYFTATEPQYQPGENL
Sequence of Tyrosine-protein kinase ABL1 (Homo sapiens) (P00519 whole entry, the tested form may be a part): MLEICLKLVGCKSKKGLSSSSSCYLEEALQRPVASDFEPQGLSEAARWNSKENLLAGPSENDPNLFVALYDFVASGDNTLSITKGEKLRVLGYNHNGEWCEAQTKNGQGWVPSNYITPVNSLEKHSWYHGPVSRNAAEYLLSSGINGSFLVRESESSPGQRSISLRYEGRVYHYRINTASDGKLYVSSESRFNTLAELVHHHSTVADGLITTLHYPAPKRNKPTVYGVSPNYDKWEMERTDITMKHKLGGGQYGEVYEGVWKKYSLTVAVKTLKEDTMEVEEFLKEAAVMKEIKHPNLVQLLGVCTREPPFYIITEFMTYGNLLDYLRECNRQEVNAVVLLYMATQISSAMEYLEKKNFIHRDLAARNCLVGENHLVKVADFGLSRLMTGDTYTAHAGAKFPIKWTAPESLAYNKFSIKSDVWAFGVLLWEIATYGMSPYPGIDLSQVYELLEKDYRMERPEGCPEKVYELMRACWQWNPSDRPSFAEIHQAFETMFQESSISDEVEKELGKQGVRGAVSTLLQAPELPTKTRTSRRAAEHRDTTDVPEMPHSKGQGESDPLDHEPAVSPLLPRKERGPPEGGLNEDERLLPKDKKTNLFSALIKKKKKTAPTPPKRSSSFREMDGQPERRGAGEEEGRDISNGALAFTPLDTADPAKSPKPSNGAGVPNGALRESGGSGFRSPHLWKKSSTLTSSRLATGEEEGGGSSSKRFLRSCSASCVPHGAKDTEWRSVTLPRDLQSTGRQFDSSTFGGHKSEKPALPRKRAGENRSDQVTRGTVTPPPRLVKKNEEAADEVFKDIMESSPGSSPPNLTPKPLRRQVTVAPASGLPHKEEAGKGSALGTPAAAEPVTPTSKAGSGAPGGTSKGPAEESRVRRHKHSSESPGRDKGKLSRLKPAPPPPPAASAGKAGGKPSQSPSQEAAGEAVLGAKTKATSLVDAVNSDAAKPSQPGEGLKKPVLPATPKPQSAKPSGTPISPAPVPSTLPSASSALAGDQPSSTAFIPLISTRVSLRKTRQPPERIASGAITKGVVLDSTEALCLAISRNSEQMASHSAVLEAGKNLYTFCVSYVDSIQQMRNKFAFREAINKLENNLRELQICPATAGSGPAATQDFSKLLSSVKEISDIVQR
Sequence of Mitogen-activated protein kinase 14 (Homo sapiens) (Q16539 whole entry, the tested form may be a part): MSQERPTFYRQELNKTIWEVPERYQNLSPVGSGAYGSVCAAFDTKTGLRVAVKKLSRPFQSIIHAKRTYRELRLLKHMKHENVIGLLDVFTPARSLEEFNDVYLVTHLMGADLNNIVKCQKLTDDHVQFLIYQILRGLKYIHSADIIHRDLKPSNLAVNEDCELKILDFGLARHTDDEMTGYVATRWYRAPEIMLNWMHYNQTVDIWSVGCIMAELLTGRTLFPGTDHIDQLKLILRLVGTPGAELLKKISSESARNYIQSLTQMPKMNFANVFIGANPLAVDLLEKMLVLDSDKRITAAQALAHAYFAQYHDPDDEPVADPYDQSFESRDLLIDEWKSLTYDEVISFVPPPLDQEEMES
Sequence of Mitogen-activated protein kinase 8 (Homo sapiens) (P45983 whole entry, the tested form may be a part): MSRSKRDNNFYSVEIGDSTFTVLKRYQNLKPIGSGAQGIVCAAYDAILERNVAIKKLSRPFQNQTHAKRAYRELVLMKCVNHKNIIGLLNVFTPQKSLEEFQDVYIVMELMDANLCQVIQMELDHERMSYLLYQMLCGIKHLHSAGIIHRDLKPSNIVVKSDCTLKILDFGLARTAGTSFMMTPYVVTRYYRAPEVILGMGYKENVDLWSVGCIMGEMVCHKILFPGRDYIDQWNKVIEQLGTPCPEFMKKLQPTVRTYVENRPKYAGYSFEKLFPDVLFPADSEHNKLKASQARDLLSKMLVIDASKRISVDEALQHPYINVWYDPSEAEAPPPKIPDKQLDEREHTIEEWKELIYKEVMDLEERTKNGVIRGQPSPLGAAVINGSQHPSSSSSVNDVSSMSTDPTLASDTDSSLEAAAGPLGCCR
Sequence of Ephrin type-B receptor 3 (Homo sapiens) (P54753 whole entry, the tested form may be a part): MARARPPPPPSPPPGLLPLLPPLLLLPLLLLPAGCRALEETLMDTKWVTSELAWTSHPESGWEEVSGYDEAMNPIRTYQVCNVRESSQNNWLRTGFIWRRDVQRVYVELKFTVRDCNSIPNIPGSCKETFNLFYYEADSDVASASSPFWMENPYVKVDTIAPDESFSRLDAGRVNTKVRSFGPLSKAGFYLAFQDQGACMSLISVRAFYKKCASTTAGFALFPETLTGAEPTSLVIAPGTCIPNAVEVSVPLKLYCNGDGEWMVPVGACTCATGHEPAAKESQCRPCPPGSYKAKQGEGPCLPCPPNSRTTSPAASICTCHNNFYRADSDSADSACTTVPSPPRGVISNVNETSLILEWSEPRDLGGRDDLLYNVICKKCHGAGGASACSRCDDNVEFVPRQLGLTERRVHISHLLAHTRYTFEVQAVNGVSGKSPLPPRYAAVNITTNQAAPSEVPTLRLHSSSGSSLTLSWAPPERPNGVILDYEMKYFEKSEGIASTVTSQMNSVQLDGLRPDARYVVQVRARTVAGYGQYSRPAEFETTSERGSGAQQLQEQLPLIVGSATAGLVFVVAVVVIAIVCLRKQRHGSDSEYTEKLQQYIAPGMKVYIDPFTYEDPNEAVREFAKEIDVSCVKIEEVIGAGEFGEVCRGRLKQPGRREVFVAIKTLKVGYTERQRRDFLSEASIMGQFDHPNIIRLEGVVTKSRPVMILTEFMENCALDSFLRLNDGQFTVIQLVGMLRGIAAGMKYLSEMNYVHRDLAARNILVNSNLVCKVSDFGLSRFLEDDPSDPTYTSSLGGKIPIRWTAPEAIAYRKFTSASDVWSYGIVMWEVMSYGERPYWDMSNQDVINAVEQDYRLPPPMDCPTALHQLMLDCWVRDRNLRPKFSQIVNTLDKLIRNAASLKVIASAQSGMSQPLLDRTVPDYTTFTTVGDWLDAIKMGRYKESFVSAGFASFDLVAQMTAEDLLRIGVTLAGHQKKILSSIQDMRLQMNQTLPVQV
Sequence of Tau-tubulin kinase 1 (Homo sapiens) (Q5TCY1 whole entry, the tested form may be a part): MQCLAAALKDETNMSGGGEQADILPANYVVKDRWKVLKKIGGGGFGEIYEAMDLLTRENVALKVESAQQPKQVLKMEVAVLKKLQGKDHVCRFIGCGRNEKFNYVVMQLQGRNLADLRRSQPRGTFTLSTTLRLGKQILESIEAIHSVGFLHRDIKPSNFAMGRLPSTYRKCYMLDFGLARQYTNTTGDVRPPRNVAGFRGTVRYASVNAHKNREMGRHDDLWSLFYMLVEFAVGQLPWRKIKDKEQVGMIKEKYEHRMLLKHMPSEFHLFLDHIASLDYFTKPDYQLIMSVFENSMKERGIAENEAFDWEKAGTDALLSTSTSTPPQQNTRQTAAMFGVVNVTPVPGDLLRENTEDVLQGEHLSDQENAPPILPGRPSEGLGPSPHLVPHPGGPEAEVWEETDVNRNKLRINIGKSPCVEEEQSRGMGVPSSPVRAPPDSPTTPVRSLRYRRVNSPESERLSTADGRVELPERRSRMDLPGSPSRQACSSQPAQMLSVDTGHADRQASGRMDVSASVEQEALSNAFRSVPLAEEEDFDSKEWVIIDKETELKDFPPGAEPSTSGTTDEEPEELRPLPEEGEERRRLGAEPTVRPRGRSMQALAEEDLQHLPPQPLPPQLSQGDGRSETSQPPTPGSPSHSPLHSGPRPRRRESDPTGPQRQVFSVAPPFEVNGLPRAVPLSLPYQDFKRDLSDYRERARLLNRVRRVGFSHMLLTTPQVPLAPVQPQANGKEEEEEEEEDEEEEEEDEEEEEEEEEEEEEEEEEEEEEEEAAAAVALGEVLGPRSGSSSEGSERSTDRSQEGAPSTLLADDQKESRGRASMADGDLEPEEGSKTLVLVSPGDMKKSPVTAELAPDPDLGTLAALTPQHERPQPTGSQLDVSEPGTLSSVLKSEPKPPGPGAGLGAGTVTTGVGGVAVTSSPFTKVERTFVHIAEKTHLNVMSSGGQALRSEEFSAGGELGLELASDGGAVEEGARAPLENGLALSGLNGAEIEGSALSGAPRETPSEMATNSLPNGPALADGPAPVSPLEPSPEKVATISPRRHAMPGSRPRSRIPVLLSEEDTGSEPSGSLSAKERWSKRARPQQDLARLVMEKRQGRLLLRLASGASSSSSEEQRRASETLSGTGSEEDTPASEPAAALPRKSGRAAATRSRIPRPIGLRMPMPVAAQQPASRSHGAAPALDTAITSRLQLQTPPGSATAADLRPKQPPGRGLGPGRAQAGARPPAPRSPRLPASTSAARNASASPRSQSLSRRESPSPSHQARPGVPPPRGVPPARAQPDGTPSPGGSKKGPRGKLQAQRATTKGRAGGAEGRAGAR

Turning to `Cc1cc(=O)c2c(O)cc(O)c([C@H]3CCN(C)C[C@H]3O)c2o1` [ROHITUKINE], the Activity in [1] was 66%; in [2], 7%; in data set [3] it was 59%; in data set [4] it was 16%; in [5], 78%; in data set [6] it was 82%. Besides, the Activity in data set [7] was 84%; in [8], 85%; in data set [9], 83%; in data set [10] it was 57%; in data set [11], 87%; in data set [12], 82%. The Activity stood at 11% in [13]; 27% in data set [16]; 96% in data set [17]; 69% in [18]; 19% in data set [19]; 76% in [20]. Further, the Activity in data set [21] was 42%; with MAP3K9, 47%. For the same molecule, the solubility thermodynamic in [14] was 16.9 mg/mL (≈ 55.5 mM). In addition, the half-maximal inhibitory concentration (IC50) on CDK2/Cyclin A2 was determined as 7.3 µM. For the same molecule, the inhibition in data set [15] stood at 10%.
